Source: patent US11780826B2 (Amgen Inc., priority 2017, dated 2023)

Each compound was assayed on Bovine cardiac myofibrils (assay: In vitro model of dose-dependent myofibril ATPase modulation (AC1.4, pyruvate kinase/lactate dehydrogenase-coupled ATPase assay at pCa25)). Conditions: concentration at which ATPase activity was 1.4-fold higher than the bottom of the dose curve, mean of a minimum of two independent tests.
Format: biochemical
How it was run: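 Compound dilutions were premixed with myofibrils, coupling enzymes, EGTA and CaCl2, then the reaction was started with an equal volume carrying ATP (final 1 mM), NADH and PEP. ATP turnover was followed at 340 nm, and dose responses were fit to a four-parameter equation.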

| Compound | AC1.4 [µM] |
| --- | --- |
| CS(=O)(=O)c1cc(C(=O)N2CCC[C@@H]2C(=O)N[C@@H](c2cc(F)c(Cl)cc2F)C2CC2)ccn1 [Example 421, N-((R)-(4-chloro-2,5-difluorophenyl)(cyclopropyl)methyl)-1-((2-(methylsulfonyl)-4-pyridinyl)carbonyl)-D-prolinamide] | 1.4335 |
| CS(=O)(=O)N1CC(F)(c2cccc(C(=O)N3[C@@H](C(=O)N[C@@H](c4ccc(C(F)(F)F)cc4F)C4CC4)C[C@H]4C[C@H]43)c2)C1 [Example 422, (1R,3R,5R)-N-((R)-cyclopropyl(2-fluoro-4-(trifluoromethyl)phenyl)methyl)-2-(3-(3-fluoro-1-(methylsulfonyl)-3-azetidinyl)benzoyl)-2-azabicyclo[3.1.0]hexane-3-carboxamide] | 1.5655 |
| N#CC1CN(S(=O)(=O)N2CCC[C@H](C(=O)N3CCC[C@@H]3C(=O)NCc3c(F)cc(F)c(F)c3F)C2)C1 [Example 423, 1-(((3S)-1-((3-cyano-1-azetidinyl)sulfonyl)-3-piperidinyl)carbonyl)-N-(2,3,4,6-tetrafluorobenzyl)-D-prolinamide] | 1.5735 |
| O=C(NCc1ccc(C(F)(F)F)cc1)[C@H]1CCCN1C(=O)[C@H]1CCCN(S(=O)(=O)N2CC(Oc3ccc(Cl)cc3)C2)C1 [Example 424, 1-(((3S)-1-((3-(4-chlorophenoxy)-1-azetidinyl)sulfonyl)-3-piperidinyl)carbonyl)-N-(4-(trifluoromethyl)benzyl)-D-prolinamide] | 1.5805 |
| NC(=O)[C@H]1C[C@@H](S(=O)(=O)N2CCC[C@H](C(=O)N3CCC[C@@H]3C(=O)NCc3ccc(C(F)(F)F)cc3)C2)C1 [Example 425, 1-(((3S)-1-((cis-3-carbamoylcyclobutyl)sulfonyl)-3-piperidinyl)carbonyl)-N-(4-(trifluoromethyl)benzyl)-D-prolinamide] | 1.5805 |
| CS(=O)(=O)c1cccc(C(=O)N2CCC[C@@H]2C(=O)N[C@@H](c2ccc(Cl)c(F)c2)C2CC2)c1 [Example 426, N-((R)-(4-chloro-3-fluorophenyl)(cyclopropyl)methyl)-1-(3-(methylsulfonyl)benzoyl)-D-prolinamide] | 1.4595 |
| N#CC1CN(S(=O)(=O)N2CCC[C@H](C(=O)N3C[C@@H](F)C[C@@H]3C(=O)NCc3cccc(C(F)(F)F)c3)C2)C1 [Example 427, (4S)-1-(((3S)-1-((3-cyano-1-azetidinyl)sulfonyl)-3-piperidinyl)carbonyl)-4-fluoro-N-(3-(trifluoromethyl)benzyl)-D-prolinamide] | 1.5865 |
| C[C@@H](NC(=O)[C@H]1CCCN1C(=O)[C@@H]1CN(S(=O)(=O)N2CC(C#N)C2)CCN1)c1ccc(C(F)(F)F)cc1 [Example 428, 1-(((2S)-4-((3-cyano-1-azetidinyl)sulfonyl)-2-piperazinyl)carbonyl)-N-((1R)-1-(4-(trifluoromethyl)phenyl)ethyl)-D-prolinamide] | 1.606 |
| CS(=O)(=O)C1CN(S(=O)(=O)N2CCC[C@H](C(=O)N3CCC[C@@H]3C(=O)NCc3cc(F)cc(F)c3)C2)C1 [Example 429, N-(3,5-difluorobenzyl)-1-(((3S)-1-((3-(methylsulfonyl)-1-azetidinyl)sulfonyl)-3-piperidinyl)carbonyl)-D-prolinamide] | 1.6075 |
| CS(=O)(=O)c1cncc(C(=O)N2C[C@@H](F)C[C@@H]2C(=O)N[C@@H](c2cc(F)c(C(F)(F)F)cc2F)C2CC2)c1 [Example 430, (4S)-N-((R)-cyclopropyl(2,5-difluoro-4-(trifluoromethyl)phenyl)methyl)-4-fluoro-1-((5-(methylsulfonyl)-3-pyridinyl)carbonyl)-D-prolinamide] | 1.474 |
| C[C@H](NC(=O)[C@H]1CCCN1C(=O)[C@H]1CCCN(S(=O)(=O)N2CC(C#N)C2)C1)c1ccc(C(F)(F)F)cc1 [Example 431, 1-(((3S)-1-((3-cyano-1-azetidinyl)sulfonyl)-3-piperidinyl)carbonyl)-N-((1S)-1-(4-(trifluoromethyl)phenyl)ethyl)-D-prolinamide] | 1.6305 |
| C[C@@H](NC(=O)[C@H]1CCCN1C(=O)c1cccc(S(=O)(=O)N2CC3(CC3)C2)c1)c1ccc(C(F)(F)F)cc1 [Example 434] | 1.66 |
| N#CC1CN(S(=O)(=O)N2CCC[C@H](C(=O)N3CCC[C@@H]3C(=O)NCc3ccc(OC(F)F)cc3)C2)C1 [Example 435, 1-(((3S)-1-((3-cyano-1-azetidinyl)sulfonyl)-3-piperidinyl)carbonyl)-N-(4-(difluoromethoxy)benzyl)-D-prolinamide] | 1.681 |
| C[C@@H](NC(=O)[C@H]1CCCN1C(=O)c1cccc(S(=O)(=O)N(C)C)c1)c1ccc(C(F)(F)F)cc1 [Example 436, 1-(3-(dimethylsulfamoyl)benzoyl)-N-((1R)-1-(4-(trifluoromethyl)phenyl)ethyl)-D-prolinamide] | 1.7 |
| N#CC1CN(S(=O)(=O)N2CCC[C@H](C(=O)N3CCC[C@@H]3C(=O)NCc3ccc(F)cc3)C2)C1 [Example 437, 1-(((3S)-1-((3-cyano-1-azetidinyl)sulfonyl)-3-piperidinyl)carbonyl)-N-(4-fluorobenzyl)-D-prolinamide] | 1.7085 |
| N#CC1CN(S(=O)(=O)N2CCC[C@H](C(=O)N3CCC[C@@H]3C(=O)NCc3cccc(Cl)c3)C2)C1 [Example 438, N-(3-chlorobenzyl)-1-(((3S)-1-((3-cyano-1-azetidinyl)sulfonyl)-3-piperidinyl)carbonyl)-D-prolinamide] | 1.712 |
| Cc1cc(CNC(=O)[C@H]2CCCN2C(=O)[C@H]2CCCN(S(=O)(=O)N3CC(C#N)C3)C2)ccc1F [Example 439, 1-(((3S)-1-((3-cyano-1-azetidinyl)sulfonyl)-3-piperidinyl)carbonyl)-N-(4-fluoro-3-methylbenzyl)-D-prolinamide] | 1.7125 |
| N#CC1CN(S(=O)(=O)N2CCC[C@H](C(=O)N3CCC[C@@H]3C(=O)NCc3cc(F)ccc3Cl)C2)C1 [Example 440, N-(2-chloro-5-fluorobenzyl)-1-(((3S)-1-((3-cyano-1-azetidinyl)sulfonyl)-3-piperidinyl)carbonyl)-D-prolinamide] | 1.7235 |
| N#CC1CN(S(=O)(=O)N2CCC[C@H](C(=O)N3CCC[C@@H]3C(=O)N[C@@H](CO)c3ccc(Cl)c(F)c3)C2)C1 [Example 441, N-((1R)-1-(4-chloro-3-fluorophenyl)-2-hydroxyethyl)-1-(((3S)-1-((3-cyano-1-azetidinyl)sulfonyl)-3-piperidinyl)carbonyl)-D-prolinamide] | 1.7265 |
| N#CC1CN(S(=O)(=O)N2CCC[C@H](C(=O)N3CCC[C@@H]3C(=O)NC3CCc4ccccc43)C2)C1 (stereo partly drawn) [Example 442, (2R)-1-((S)-1-((3-cyanoazetidin-1-yl)sulfonyl)piperidine-3-carbonyl)-N-(2,3-dihydro-1H-inden-1-yl)pyrrolidine-2-carboxamide] | 1.7305 |
| Cc1cc(Cl)cc(CNC(=O)[C@H]2CCCN2C(=O)[C@H]2CCCN(S(=O)(=O)N3CC(C#N)C3)C2)c1 [Example 443, N-(3-chloro-5-methylbenzyl)-1-(((3S)-1-((3-cyano-1-azetidinyl)sulfonyl)-3-piperidinyl)carbonyl)-D-prolinamide] | 1.7885 |
| CS(=O)(=O)c1ccnc(C(=O)N2[C@@H](C(=O)N[C@@H](c3ccc(C(F)(F)F)cc3F)C3CC3)C[C@H]3C[C@H]32)c1 [Example 444, (1R,3R,5R)-N-((R)-cyclopropyl(2-fluoro-4-(trifluoromethyl)phenyl)methyl)-2-(4-(methylsulfonyl)picolinoyl)-2-azabicyclo[3.1.0]hexane-3-carboxamide] | 1.547 |
| Cc1cc(CNC(=O)[C@H]2CCCN2C(=O)[C@H]2CCCN(S(=O)(=O)N3CC(C#N)C3)C2)cc(C)c1F [Example 445, 1-(((3S)-1-((3-cyano-1-azetidinyl)sulfonyl)-3-piperidinyl)carbonyl)-N-(4-fluoro-3,5-dimethylbenzyl)-D-prolinamide] | 1.823 |
| NS(=O)(=O)c1cccc(C(=O)N2CC(F)(F)C[C@@H]2C(=O)N[C@@H](c2ccc(C(F)(F)F)cc2F)C2CC2)c1 [Example 446, N-((R)-cyclopropyl(2-fluoro-4-(trifluoromethyl)phenyl)methyl)-4,4-difluoro-1-(3-sulfamoylbenzoyl)-D-prolinamide] | 1.826 |
| N#CC1CN(S(=O)(=O)N2CCC[C@H](C(=O)N3CCC[C@@H]3C(=O)NCc3ccc(C4CC4)cc3)C2)C1 [Example 447, 1-(((3S)-1-((3-cyano-1-azetidinyl)sulfonyl)-3-piperidinyl)carbonyl)-N-(4-cyclopropylbenzyl)-D-prolinamide] | 1.831 |
| N#CC1CN(S(=O)(=O)N2CCC[C@H](C(=O)N3CCOC[C@@H]3C(=O)NCc3ccc(C(F)F)cc3)C2)C1 [Example 448, (3R)-4-(((3S)-1-((3-cyano-1-azetidinyl)sulfonyl)-3-piperidinyl)carbonyl)-N-(4-(difluoromethyl)benzyl)-3-morpholinecarboxamide] | 1.844 |
| O=C(NCc1ccc(C(F)(F)F)cc1F)[C@H]1CCCN1C(=O)c1cccc(S(=O)(=O)N2CC(O)C2)c1 [Example 449, N-(2-fluoro-4-(trifluoromethyl)benzyl)-1-(3-((3-hydroxy-1-azetidinyl)sulfonyl)benzoyl)-D-prolinamide] | 1.845 |
| O=C(NCc1ccc(C(F)(F)F)cc1)[C@H]1CCCN1C(=O)[C@H]1CCCN(S(=O)(=O)N2CC(F)(C3CC3)C2)C1 [Example 450, 1-(((3S)-1-((3-cyclopropyl-3-fluoro-1-azetidinyl)sulfonyl)-3-piperidinyl)carbonyl)-N-(4-(trifluoromethyl)benzyl)-D-prolinamide] | 1.8545 |
